Measurements as given in ChEMBL document CHEMBL1275370, “The binding of β-d-glucopyranosyl-thiosemicarbazone derivatives to glycogen phosphorylase: A new class of inhibitors” (Bioorg Med Chem, 2010).

Target: T1, Glycogen phosphorylase, muscle form (Oryctolagus cuniculus, UniProt P00489)
T1 sequence (P00489 whole entry): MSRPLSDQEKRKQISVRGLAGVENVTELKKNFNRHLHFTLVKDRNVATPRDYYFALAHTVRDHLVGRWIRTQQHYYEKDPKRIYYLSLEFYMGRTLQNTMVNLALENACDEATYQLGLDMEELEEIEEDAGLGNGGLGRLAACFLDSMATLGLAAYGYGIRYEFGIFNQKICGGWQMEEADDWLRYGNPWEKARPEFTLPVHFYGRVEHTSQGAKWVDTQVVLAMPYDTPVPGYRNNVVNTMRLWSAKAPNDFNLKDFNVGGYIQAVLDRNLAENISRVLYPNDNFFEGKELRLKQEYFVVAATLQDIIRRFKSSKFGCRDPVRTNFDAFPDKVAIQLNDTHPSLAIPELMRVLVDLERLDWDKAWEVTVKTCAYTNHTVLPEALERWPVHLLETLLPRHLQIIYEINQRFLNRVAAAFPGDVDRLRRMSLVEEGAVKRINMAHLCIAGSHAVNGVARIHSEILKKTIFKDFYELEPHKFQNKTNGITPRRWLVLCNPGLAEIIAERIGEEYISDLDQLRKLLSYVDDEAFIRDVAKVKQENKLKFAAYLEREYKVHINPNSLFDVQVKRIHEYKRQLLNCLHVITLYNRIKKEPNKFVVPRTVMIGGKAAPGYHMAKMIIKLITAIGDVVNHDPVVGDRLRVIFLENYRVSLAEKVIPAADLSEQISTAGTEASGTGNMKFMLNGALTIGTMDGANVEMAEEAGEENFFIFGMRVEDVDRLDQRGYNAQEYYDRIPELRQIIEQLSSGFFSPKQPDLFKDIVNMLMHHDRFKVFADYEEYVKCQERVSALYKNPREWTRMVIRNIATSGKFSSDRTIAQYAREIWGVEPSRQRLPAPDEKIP
Description: Inhibition of rabbit skeletal muscle glycogen phosphorylase b

| IC50 [µM] | SMILES |
| --- | --- |
| 25.7 | CC[C@H]1O[C@@H](NC(=S)N/N=C/c2ccc([N+](=O)[O-])cc2)[C@H](O)[C@@H](O)[C@@H]1O |
| 93.2 | CC[C@H]1O[C@@H](NC(=S)N/N=C/c2ccc(Br)cc2)[C@H](O)[C@@H](O)[C@@H]1O |
| 340 | CC[C@H]1O[C@@H](NC(=S)N/N=C/c2ccc(O)cc2)[C@H](O)[C@@H](O)[C@@H]1O |
| 406 | CC[C@H]1O[C@@H](NC(=S)N/N=C/c2ccc(OC)cc2)[C@H](O)[C@@H](O)[C@@H]1O |
| 192 | CC[C@H]1O[C@@H](NC(=S)N/N=C/c2ccc(C)cc2)[C@H](O)[C@@H](O)[C@@H]1O |
| 524 | CC[C@H]1O[C@@H](NC(=S)N/N=C/c2ccc(C(F)(F)F)cc2)[C@H](O)[C@@H](O)[C@@H]1O |
| 200 | CC[C@H]1O[C@@H](NC(=S)N/N=C/c2ccncc2)[C@H](O)[C@@H](O)[C@@H]1O |
| 23.2 | CC[C@H]1O[C@@H](NC(=S)N/N=C/c2cccc(Cl)c2)[C@H](O)[C@@H](O)[C@@H]1O |
| 180 | CC[C@H]1O[C@@H](NC(=S)N/N=C/c2cccc(O)c2)[C@H](O)[C@@H](O)[C@@H]1O |
| 484 | CC[C@H]1O[C@@H](NC(=S)N/N=C/c2ccccc2[N+](=O)[O-])[C@H](O)[C@@H](O)[C@@H]1O |
| 370 | CC[C@H]1O[C@@H](NC(=S)N/N=C/c2ccccc2Cl)[C@H](O)[C@@H](O)[C@@H]1O |
| 26.6 | CC[C@H]1O[C@@H](NC(=S)N/N=C/c2ccccc2O)[C@H](O)[C@@H](O)[C@@H]1O |
